From patent US8993542B2, “Methods of treating viral infections” (priority 2008, dated 2015)
pIC50: −log10 of the molar value.

What was measured:
Type in all cases: cell-based
[1] = system: HIV-1IIIB; assay: Two-drug combination antiviral assay in CEM cells (CPE), MacSynergy II; details: for Antagonism Volume, Result 1 / Antagonism Volume, Result 2 / Antagonism Volume, Result 3 / Mean Antagonism Volume (n = 3) / Mean Synergy Volume (n = 3) / Synergy Volume, Result 1 / Synergy Volume, Result 2 / Synergy Volume, Result 3: in combination with CMX157, CEM-SS cells, 95% confidence; for Interpretation of Antiviral Results (MacSynergy): two-drug combination (with CMX157; control d4T/RBV), CEM-SS cells
[2] = system: HIV-1IIIB; assay: TCID50 determination of drug-treated HIV-1IIIB; set-up: TCID50, XTT Endpoint / TCID50, RT Endpoint / TCID50, P24 Endpoint: unit not given here
[3] = system: HIV; assay: microbe, parasite or virus in culture
[4] = virus treated 15 minutes with 0.039 nM drug
[5] = virus treated 15 minutes with 0.125 nM drug
[6] = virus treated 15 minutes with 0.39 nM drug
[7] = virus treated 15 minutes with 1.25 nM drug
[8] = virus treated 15 minutes with 3.9 nM drug
[9] = virus treated 15 minutes with 12.5 nM drug
[10] = virus treated 15 minutes with 39.1 nM drug
[11] = virus treated 15 minutes with 125 nM drug

Nc1ccn([C@H]2CC[C@@H](CO)O2)c(=O)n1 [Zalcitabine (ddC), 2′,3′-dideoxycytidine]
Antagonism Volume, Result 1 [1]: 0 nM^2 %, μM^2 % or nMμM %
Antagonism Volume, Result 2 [1]: 0 nM^2 %, μM^2 % or nMμM %
Antagonism Volume, Result 3 [1]: −15.9 nM^2 %, μM^2 % or nMμM %
Mean Antagonism Volume (n = 3) [1]: −5.29 nM^2 %, μM^2 % or nMμM %
Mean Synergy Volume (n = 3) [1]: 122 nM^2 %, μM^2 % or nMμM %
Synergy Volume, Result 1 [1]: 154 nM^2 %, μM^2 % or nMμM %
Synergy Volume, Result 2 [1]: 80.0 nM^2 %, μM^2 % or nMμM %
Synergy Volume, Result 3 [1]: 131 nM^2 %, μM^2 % or nMμM %
Interpretation of Antiviral Results (MacSynergy) [1]: highly synergistic

CC(C)c1nc(CN(C)C(=O)N[C@H](C(=O)N[C@@H](Cc2ccccc2)C[C@H](O)[C@H](Cc2ccccc2)NC(=O)OCc2cncs2)C(C)C)cs1 [Ritonavir (RTV), ritonavir]
Antagonism Volume, Result 1 [1]: 0 nM^2 %, μM^2 % or nMμM %
Antagonism Volume, Result 2 [1]: 0 nM^2 %, μM^2 % or nMμM %
Antagonism Volume, Result 3 [1]: −2.61 nM^2 %, μM^2 % or nMμM %
Mean Antagonism Volume (n = 3) [1]: 0 nM^2 %, μM^2 % or nMμM %
Mean Synergy Volume (n = 3) [1]: 66.4 nM^2 %, μM^2 % or nMμM %
Synergy Volume, Result 1 [1]: 47.5 nM^2 %, μM^2 % or nMμM %
Synergy Volume, Result 2 [1]: 38.0 nM^2 %, μM^2 % or nMμM %
Synergy Volume, Result 3 [1]: 116 nM^2 %, μM^2 % or nMμM %
Interpretation of Antiviral Results (MacSynergy) [1]: slightly synergistic

CCCCCCCCCCCCCCCCOCCCOP(=O)(O)OCCOCn1cnc2c(=O)[nH]c(N)nc21 [HDP-ACV]
effect on infectious virus ([2]; 15 minutes, 0.039 to 125 nM): no effect
Fold Decrease From VC, P24 Endpoint [2, 4]: (0) Fold
Fold Decrease From VC, RT Endpoint [2, 4]: (1.2) Fold
Fold Decrease From VC, XTT Endpoint [2, 4]: (0) Fold
TCID50, P24 Endpoint [2, 4]: 30411
TCID50, RT Endpoint [2, 4]: 132749
TCID50, XTT Endpoint [2, 4]: 18115
Fold Decrease From VC, P24 Endpoint [2, 5]: (0) Fold
Fold Decrease From VC, RT Endpoint [2, 5]: (1.6) Fold
Fold Decrease From VC, XTT Endpoint [2, 5]: (1.1) Fold
TCID50, P24 Endpoint [2, 5]: 36277
TCID50, RT Endpoint [2, 5]: 102336
TCID50, XTT Endpoint [2, 5]: 16145
Fold Decrease From VC, P24 Endpoint [2, 6]: (0) Fold
Fold Decrease From VC, RT Endpoint [2, 6]: (1.1) Fold
Fold Decrease From VC, XTT Endpoint [2, 6]: (0) Fold
TCID50, P24 Endpoint [2, 6]: 30411
TCID50, RT Endpoint [2, 6]: 144887
TCID50, XTT Endpoint [2, 6]: 20325
Fold Decrease From VC, P24 Endpoint [2, 7]: (1.4) Fold
Fold Decrease From VC, RT Endpoint [2, 7]: (1.6) Fold
Fold Decrease From VC, XTT Endpoint [2, 7]: (1.1) Fold
TCID50, P24 Endpoint [2, 7]: 21529
TCID50, RT Endpoint [2, 7]: 102336
TCID50, XTT Endpoint [2, 7]: 16145
Fold Decrease From VC, P24 Endpoint [2, 8]: (0) Fold
Fold Decrease From VC, RT Endpoint [2, 8]: (1.6) Fold
Fold Decrease From VC, XTT Endpoint [2, 8]: (0) Fold
TCID50, P24 Endpoint [2, 8]: 30411
TCID50, RT Endpoint [2, 8]: 102336
TCID50, XTT Endpoint [2, 8]: 20325
Fold Decrease From VC, P24 Endpoint [2, 9]: (0) Fold
Fold Decrease From VC, RT Endpoint [2, 9]: (1.1) Fold
Fold Decrease From VC, XTT Endpoint [2, 9]: (0) Fold
TCID50, P24 Endpoint [2, 9]: 36227
TCID50, RT Endpoint [2, 9]: 144887
TCID50, XTT Endpoint [2, 9]: 18115
Fold Decrease From VC, P24 Endpoint [2, 10]: (0) Fold
Fold Decrease From VC, RT Endpoint [2, 10]: (0) Fold
Fold Decrease From VC, XTT Endpoint [2, 10]: (1.1) Fold
TCID50, P24 Endpoint [2, 10]: 30411
TCID50, RT Endpoint [2, 10]: 204659
TCID50, XTT Endpoint [2, 10]: 16145
Fold Decrease From VC, P24 Endpoint [2, 11]: (1.4) Fold
Fold Decrease From VC, RT Endpoint [2, 11]: (0) Fold
Fold Decrease From VC, XTT Endpoint [2, 11]: (0) Fold
TCID50, P24 Endpoint [2, 11]: 21529
TCID50, RT Endpoint [2, 11]: 162566
TCID50, XTT Endpoint [2, 11]: 18115

Cc1cc(C#N)cc(C)c1Oc1nc(Nc2ccc(C#N)cc2)nc(N)c1Br [Etravirine (ETV), etravirine]
Antagonism Volume, Result 1 [1]: −0.75 nM^2 %, μM^2 % or nMμM %
Antagonism Volume, Result 2 [1]: 0 nM^2 %, μM^2 % or nMμM %
Antagonism Volume, Result 3 [1]: −0.87 nM^2 %, μM^2 % or nMμM %
Mean Antagonism Volume (n = 3) [1]: −0.29 nM^2 %, μM^2 % or nMμM %
Mean Synergy Volume (n = 3) [1]: 69.0 nM^2 %, μM^2 % or nMμM %
Synergy Volume, Result 1 [1]: 34.9 nM^2 %, μM^2 % or nMμM %
Synergy Volume, Result 2 [1]: 106 nM^2 %, μM^2 % or nMμM %
Synergy Volume, Result 3 [1]: 67.4 nM^2 %, μM^2 % or nMμM %
Interpretation of Antiviral Results (MacSynergy) [1]: slightly synergistic

CC(C)CN(C[C@@H](O)[C@H](Cc1ccccc1)NC(=O)O[C@H]1CCOC1)S(=O)(=O)c1ccc(N)cc1 [Amprenavir (APV), amprenavir]
Antagonism Volume, Result 1 [1]: 0 nM^2 %, μM^2 % or nMμM %
Antagonism Volume, Result 2 [1]: 0 nM^2 %, μM^2 % or nMμM %
Antagonism Volume, Result 3 [1]: 0 nM^2 %, μM^2 % or nMμM %
Mean Antagonism Volume (n = 3) [1]: 0 nM^2 %, μM^2 % or nMμM %
Mean Synergy Volume (n = 3) [1]: 51.4 nM^2 %, μM^2 % or nMμM %
Synergy Volume, Result 1 [1]: 104 nM^2 %, μM^2 % or nMμM %
Synergy Volume, Result 2 [1]: 43.1 nM^2 %, μM^2 % or nMμM %
Synergy Volume, Result 3 [1]: 7.31 nM^2 %, μM^2 % or nMμM %
Interpretation of Antiviral Results (MacSynergy) [1]: slightly synergistic

Nc1ccn([C@@H]2CS[C@H](CO)O2)c(=O)n1 [3TC, (2R, 5S, cis)-4-amino-1-(2-hydroxymethyl-1,3-oxathiolan-5-yl)-(1H)-pyrimidin-2-one]
pIC50 ([3]; Human immunodeficiency virus 1, PANEL 1, WT): 5.49
pIC50 ([3]; Human immunodeficiency virus 1, PANEL 2, WT): 5.35
pIC50 ([3]; Human immunodeficiency virus 1, PANEL 3, 6 TAMs, no 184): 4.86
pIC50 ([3]; Human immunodeficiency virus 1, PANEL 6, 6 TAMs + 184): < 3.52
pIC50 ([3]; Human immunodeficiency virus 1, PANEL 7, 184V): < 3.52
pIC50 ([3]; Human immunodeficiency virus 1, PANEL 9, 69ins, no 184): 4.34
pIC50 ([3]; Human immunodeficiency virus 1, PANEL 12, 69ins + 184): < 3.52
pIC50 ([3]; Human immunodeficiency virus 1, PANEL 14, 65R, no 184): 4.15
pIC50 ([3]; Human immunodeficiency virus 1, PANEL 15, 65R + 184V): < 3.52
pIC50 ([3]; Human immunodeficiency virus 1, PANEL 17, L74V): 5.16
pIC50 ([3]; Human immunodeficiency virus 1, PANEL 19, L74V + M184V): < 3.52
pIC50 ([3]; Human immunodeficiency virus 1, PANEL 26, 151M, no 184): 4.05
pIC50 ([3]; Human immunodeficiency virus 1, PANEL 28, 151M + 184): < 3.52
pIC50 ([3]; Human immunodeficiency virus 1, PANEL 29, L74V − SDM): 5.21
pIC50 ([3]; Human immunodeficiency virus 1, PANEL 30, M184V − SDM): < 3.52
pIC50 ([3]; Human immunodeficiency virus 1, PANEL 31, K65R − SDM): 4.36
pIC50 ([3]; Human immunodeficiency virus 1, PANEL 33, T215Y): 5.21
pIC50 ([3]; Human immunodeficiency virus 1, PANEL 34, T215Y + M184V): < 3.52
pIC50 ([3]; Human immunodeficiency virus 1, PANEL 35, M41L + T215Y): 5.12
pIC50 ([3]; Human immunodeficiency virus 1, PANEL 37, M41L + T215Y + M184V): < 3.52
pIC50 ([3]; Human immunodeficiency virus 1, PANEL 38, M41L + L210W + T215Y): 4.99
pIC50 ([3]; Human immunodeficiency virus 1, PANEL 39, M41L + L210W + T215Y): 5.23
pIC50 ([3]; Human immunodeficiency virus 1, PANEL 40, M41L + L210W + T215Y + M184V): < 3.52
pIC50 ([3]; Human immunodeficiency virus 1, PANEL 41, M41L + L210W + T215Y + M184V): < 3.52
pIC50 ([3]; Human immunodeficiency virus 1, PANEL 42, D67N + K70R): 5.09
pIC50 ([3]; Human immunodeficiency virus 1, PANEL 44, D67N + K70R + T215F + K219E + M184V): < 3.52
pIC50 ([3]; Human immunodeficiency virus 1, PANEL 45, L210W + T215Y): 5.14
pIC50 ([3]; Human immunodeficiency virus 1, PANEL 46, D67N + K70E): 4.97
pIC50 ([3]; Human immunodeficiency virus 1, PANEL 47, D67N + K70E + M184V): < 3.52
pIC50 ([3]; Human immunodeficiency virus 1, PANEL 48, K70E + M184V): < 3.52
